In data set [1] the test system is HepG2. Put plainly: Inhibition of GLUT in human HepG2 cells assessed as inhibition of 2-NBDG uptake at 10 uM incubated for 20 mins by fluorescence microplate reader. Type of data set: cell-based.
For data set [2], the system named is A-431. Put plainly: Cytotoxicity against human A431 cells measured after 24 hrs by WST-1 assay. Type of data set: functional, cell-based. Conditions: A-431, 24 h. A general note: Formazan colour is commonly taken as a measure of viable cells.
For data set [3], the system named is A-431. Put plainly: Radio-sensitinzing effect in human A431 cells assessed as reduction in surviving fraction incubated at 1 uM for 24 hrs with X-ray followed by measured after 7 days by Giemsa staining relative to control. In kind it is functional. To be noted: time 8 day.
The nature of data set [4]: Drug metabolism in human A431 cells assessed as 3-((4-((3-Chloro-4-fluorophenyl)amino)-6-(3-morpholinopropoxy)quinazolin-7-yl)oxy)propan-1-ol metabolite formation at 3 uM measured after 24 hrs by HPLC analysis. To be noted: a-431, 24 h. In kind it is ADME, cell-based.
Data set [5] is described as follows: Drug metabolism in human A431 cells assessed as 4-((4-((3-Chloro-4-fluorophenyl)amino)-6-(3-morpholinopropoxy)quinazolin-7-yl)oxy)butan-1-ol metabolite formation at 3 uM measured after 24 hrs by HPLC analysis. In kind it is ADME, cell-based. Conditions: a-431, 24 h.
Data set [6] has as its system HepG2. Put plainly: Inhibition of GLUT in human HepG2 cells assessed as inhibition of 2-NBDG uptake incubated for 20 mins by fluorescence microplate reader. In kind it is cell-based. To be noted: dose 10-30 µM.
Data set [7] in a line: Drug metabolism in human A431 cells assessed as 2-((4-((3-Chloro-4-fluorophenyl)amino)-6-(3-morpholinopropoxy)quinazolin-7-yl)oxy)ethan-1-ol metabolite formation at 3 uM measured after 24 hrs by HPLC analysis. In kind it is ADME, cell-based. To be noted: a-431, 24 h.

Activity calls are given as the source filed them. The rule behind the calls is not given here.

Consider `C=C1[C@@H](C)[C@H]2[C@H](Cc3ccccc3)NC(=O)[C@]23OC(=O)/C=C/[C@H](O)CCC[C@@H](C)C/C=C/[C@H]3[C@@H]1O`, for which the inhibition entry in data set [1] is “Active”.
What is called IC50 is the concentration that gives 50% inhibition. Regarding `CC(=O)OC[C@H]1OC(OCCCOc2cc3ncnc(Nc4ccc(F)c(Cl)c4)c3cc2OCCCN2CCOCC2)[C@H](OC(C)=O)[C@@H](OC(C)=O)[C@@H]1OC(C)=O` (stereo partly specified), in data set [2], the IC50 was 36.8 µM. The “fold change (FC)” value in data set [3] worked out at 0.216. In addition, the Drug metabolism result in data set [4] was “Metabolite_Detected”.
On to `CC(=O)OC[C@H]1OC(OCCCCOc2cc3ncnc(Nc4ccc(F)c(Cl)c4)c3cc2OCCCN2CCOCC2)[C@H](OC(C)=O)[C@@H](OC(C)=O)[C@@H]1OC(C)=O` (stereo partly specified), for which 39.4 µM corresponded to half-maximal inhibition in data set [2] (IC50). In addition, in data set [3], the “fold change (FC)” value is 0.202. Besides, the Drug metabolism entry in data set [5] is “Metabolite_Detected”.
On to `CC(=O)OC[C@H]1OC(OCCOc2cc3ncnc(Nc4ccc(F)c(Cl)c4)c3cc2OCCCN2CCOCC2)[C@H](OC(C)=O)[C@@H](OC(C)=O)[C@@H]1OC(C)=O` (stereo partly specified), for which half-maximal inhibition in data set [2] (IC50) required 34.3 µM. For the same molecule, the “fold change (FC)” value in data set [3] was 0.175. Also, the inhibition result in data set [6] is “Dose-dependent effect”. Besides, the Drug metabolism entry in data set [7] is reported as “Metabolite_Detected”.

The values above are taken from ChEMBL document CHEMBL4680301, “Development of a novel acetyl glucose-modified gefitinib derivative to enhance the radiosensitizing effect” (Bioorg Med Chem, 2021).
